Patent US20120309709A1, “Ion-Channel Regulator Compositions and Methods of Using Same” (priority 2007, published 2012)
Where “and” joins values, the source holds several entries; their conditions need not be identical. Identical values can stand only once. Like-named read-outs stand apart in the source and are kept apart here.

How the values were obtained:
[1] = system: cells in the synovial tissue; assay: Trypan blue exclusion test on synovial tissue; conditions: Examples 1-4
Description: Multiple samples of synovial tissue, each approximately 20 mg, were obtained from a person with osteoarthritis (grade IV, Kellgren-Lawrence scale).

[2] = system: MMPs produced by synovial tissue in response to IL-1β; conditions: for activity of the MMPs, % of that measured in tissues not exposed to the regulator: IL-1β alone = 100%
[3] = Example 1, person, regulator 0.01 mg/mL
[4] = Example 1, person, regulator 0.05 mg/mL
[5] = Example 2, person, regulator 0.01 mg/mL
[6] = Example 2, person, regulator 0.05 mg/mL
[7] = Example 3, person, regulator 0.01 mg/mL
[8] = Example 3, person, regulator 0.05 mg/mL
[9] = Example 4, person, regulator 0.01 mg/mL
[10] = Example 4, person, regulator 0.05 mg/mL
[11] = Example 5, person, single regulator 0.1 mg/mL
[12] = Example 6, person, single regulator 0.1 mg/mL
[13] = Example 7, person, single regulator 0.1 mg/mL

SMILES	concentration at which death of cells in the synovial tissue was observed [1]	activity of the MMPs, % of that measured in tissues not exposed to the regulator [2, 3] [%]	activity of the MMPs, % of that measured in tissues not exposed to the regulator [2, 4] [%]	activity of the MMPs, % of that measured in tissues not exposed to the regulator [2, 5] [%]	activity of the MMPs, % of that measured in tissues not exposed to the regulator [2, 6] [%]	activity of the MMPs, % of that measured in tissues not exposed to the regulator [2, 7] [%]	activity of the MMPs, % of that measured in tissues not exposed to the regulator [2, 8] [%]	activity of the MMPs, % of that measured in tissues not exposed to the regulator [2, 9] [%]	activity of the MMPs, % of that measured in tissues not exposed to the regulator [2, 10]	activity of the MMPs, % of that measured in tissues not exposed to the regulator [2, 11] [%]	activity of the MMPs, % of that measured in tissues not exposed to the regulator [2, 12] [%]	activity of the MMPs, % of that measured in tissues not exposed to the regulator [2, 13] [%]	effect on blocking MMP activity of further increasing the concentration ([2]; Examples 1-4, concentration increased from 0.05 mg/mL up to 0.1 mg/mL, compared with level at 0.05 mg/mL)
COc1ccc([C@@H]2Sc3ccccc3N(CCN(C)C)C(=O)[C@@H]2OC(C)=O)cc1 [diltiazem]	above 0.1 mg/mL	97	27.1	99	35.7	97	24.7	98.1	22.6%	24.8	29.8	34.3	no further effect
COc1ccc(CCN(C)CCCC(C#N)(c2ccc(OC)c(OC)c2)C(C)C)cc1OC (stereo not shown) [verapamil]	above 0.1 mg/mL	38	18.9	37.2	21.5	37	23.2	35	13.6% and 13.1%	16	21.9	17.4	–
